According to patent publication US8648090B2, “Indole alkaloid derivatives having opioid receptor agonistic effect, and therapeutic compositions and methods relating to same” (National University Corporation Chiba University, priority 2007, dated 2014):
Like-named read-outs stand apart in the source and are kept apart here.

Experiments:
[1] = test system: guinea pig ileum; experiment: Twitch contraction induced by electrical stimulation in guinea pig isolated ileum (Magnus assay); settings: for Emax / EC50: Cavia porcellus; for EC50: read-out: pD2 value (−log M) (converted); for Relative Potency (%): against morphine (100); for Inhibitory activity (%): maximum inhibition as percentage of that by morphine, intrinsic activity on opioid receptors; for pD2 value (−log M): negative logarithm of EC50, mean ± SEM of five or six animals; for Maximum inhibition (%): response at plateau, twitch contraction regarded as 100%
Procedure: The opioid agonistic effect was evaluated in an experiment involving twitch contraction induced by electrical stimulation of guinea pig ileum.
The guinea-pig ileum was dissected and placed in Krebs-Henseleit solution (in mM: NaCl, 112.08; KCl, 5.90; CaCl2, 1.97; MgCl2, 1.18; NaH2PO4, 1.22; NaHCO3, 25.00, and glucose, 11.49). The ileum was placed under 1 g tension in a 5 ml organ bath containing the nutrient solution. The bath was maintained at 37° C. and continuously bubbled with a mixture of 95% O2 and 5% CO2. Tissues were stimulated by a platinum needle-ring (the ring was placed 20 mm above the base of a 5 mm long needle) electrode. After equilibration, the ileum was transmurally stimulated with monophasic pulses (0.2 Hz and 0.1 ms duration) by a stimulator (SEN-7203, Nihon Kohden, Tokyo, Japan). Contractions were isotonically recorded by using a displacement transducer (NEC Type 45347, San-ei Instruments Ltd., Tokyo, Japan). The effects of drug treatments on the twitch contractions evoked by transmural stimulation elicited through the ring electrodes were examined. The height of the twitch response to transmural stimulation was measured before and after the drug challenge. The responses were expressed as % inhibition of the twitch response to the transmural stimulation before the drug challenge.
Male albino guinea pigs (Japan SLC) weighing 320-550 g were used. Animals were housed in a temperature-controlled room at 24° C. with lights on from 07:00-19:00 and had free access to food and water. The guinea-pig ileum was dissected and placed in Krebs-Henseleit solution (in mM: NaCl, 112.08; KCl, 5.90; CaCl2, 1.97; MgCl2, 1.18; NaH2PO4, 1.22; NaHCO3, 25.00, and glucose, 11.49). The ileum was set up under 1 g of tension in 5 mL of an organ bath containing the nutrient solution. The bath was maintained at 37° C. and continuously bubbled with a gas mixture of 95% O2 and 5% CO2. At the start of each experiment, the maximum response to acetylcholine (3 μM) was obtained for each tissue to check its suitability. Tissues were stimulated through platinum needle-ring (a ring was placed 20 mm above the base of a needle 5 mm in length) electrodes using square wave pulses of supramaximal voltage. The ileum was transmurally stimulated with monophasic pulses (0.2 Hz) at 0.3 ms duration by a stimulator (SEN-7203, Nihon Kohden, Tokyo, Japan). Contractions were isotonically recorded with a displacement transducer (NEC, San-ei Instruments Ltd., Type 45347), a DC strain amplifier (San-ei 6M92), and a DC recorder (Hitachi, Mod 056, Tokyo, Japan). All concentration-response curves were constructed in a cumulative manner. The height of the twitch response to transmural stimulation was measured before and after drug challenge. The twitch response remaining after each sample addition was determined by dividing the height after its addition by the height before addition multiplied by 100. To obtain the percentage inhibition, this value was subtracted from 100. […] To investigate the involvement of opioid receptors in the inhibitory effect of the samples, the antagonistic effect of the opioid receptor antagonist naloxone was examined. The inhibitory effects of samples on electrically stimulated contraction were regarded as opioid activities when the antagonistic effect of naloxone was observed.

[2] = test system: mice; experiment: Tail-flick test, analgesic effect after oral administration; format: in vivo; settings: for ED50: Mus musculus; for ED50 / ED50 analgesic effect (tail-flick): mice, (95% confidence limits); for times more potent analgesic effect than morphine: mouse tail-flick test
From the text: Analgesia was quantified using the percentage of maximum possible effect (% MPE) and calculated as: % MP=[(test latency−pre-drug latency)/(cut-off time−pre-drug latency)]×100. A cut-off time of 10 s was used to prevent tissue damage. Each value represents mean±S.E.M. of data obtained from 7 to 9 mice.
(§1) Mice respond to a focused heat stimulus by flicking or moving their tail from the path of the stimulus, thereby exposing a photocell located in the tail-flick analgesia meter (Ugo Basile Tail-flick Unit 7360, Ugo Basile, Comerio, Italy) immediately below the tail. The reaction time is automatically recorded. Prior to treatment with drugs, vehicle, or saline, the nociceptive threshold was measured three times, and the mean of the reaction time was used as the pre-drug latency for each mouse. A cut-off time of 10 s was used to prevent tissue damage. Analgesia was quantified using the percentage of maximum possible effect (% MPE) and calculated as: % MPE=[(test latency−pre-drug latency)/(cut-off time−pre-drug latency)]×100.
(§2) The data are expressed as the mean±S.E.M. Statistical analyses were performed with two-tailed Student's t-test for comparison of two groups, and by a one-way analysis of variance followed by a Bonferroni multiple comparison test for comparison of more than two groups. A P value <0.05 was considered statistically significant.

[3] = Gastrointestinal transit (charcoal meal), constipating effect after oral administration; format: in vivo; settings: mouse, in vivo; oral administration, mice; (95% confidence limits); read-out: ED50 inhibitory effect on gastrointestinal transit (GIT), constipating ED50
Procedure: (§3) The inhibition of gastrointestinal transit (%) was calculated as: Inhibition of gastrointestinal transit (%)=[(saline or vehicle GIT−drug GIT)/(saline or vehicle GIT)]×100. Each value represents mean±S.E.M. of 7 or 8 mice.
(§4) Mice were fasted, with water available ad libitum, for 18 h before the experiments. […] Thirty minutes after administration of the charcoal meal, the animal was sacrificed by cervical dislocation, and the small intestine from the pylorus to the ileocecum was carefully removed. Both the length of the small intestine from the pylorus to the ileocecum and the farthest distance to which the charcoal meal had traveled were measured. For each animal, the gastrointestinal transit (GIT) was calculated as the percentage of distance traveled by the charcoal meal relative to the total length of the small intestine. The inhibition of gastrointestinal transit (%) was calculated as: Inhibition of gastrointestinal transit (%)=[(saline or vehicle GIT−drug GIT)/(saline or vehicle GIT)]×100.
as §2

[4] = test system: mice; experiment: as above; format: in vivo; settings: oral, GIT ED50 versus tail-flick ED50
Procedure: as §3, §4, §2

[5] = test system: mice; experiment: Effects of opioid receptor antagonists on analgesia induced by s.c. administration, mouse tail-flick test; format: in vivo; settings: s.c. compound; for effect of naloxone on analgesic effect: non-selective opioid antagonist naloxone, data not shown; for effect of naltrindole on analgesic effect: δ-opioid receptor selective antagonist NTI 3 mg/kg; for effect of nor-binaltorphimine on analgesic effect: κ-opioid receptor selective antagonist norBNI 20 mg/kg; for effect of β-funaltrexamine on analgesic effect: μ-opioid receptor selective antagonist β-FNA 40 mg/kg
Procedure: The analgesic effects were determined in the mouse tail-flick test after s.c. administration of the following antagonists: β-funaltrexamine (β-FNA, 40 mg/kg), naltrindole (NTI, 3 mg/kg), and nor-binaltorphimine (norBNI, 20 mg/kg). Measurements were performed 15 min after s.c. administration of compound 11, compound 26 and compound 27. […] Each value represents mean±S.E.M. of 8 or 9 mice.
as §1

[6] = read-out: Inhibitory activity (%)
[7] = read-out: Maximum inhibition (%)

C[C@@]12Nc3ccccc3[C@]1(C)OCCO2
melting point: 79 to 81 °C

CC[C@@H]1CN2CC[C@@]34OCCO[C@@]3(Nc3cccc(OC)c34)[C@@H]2C[C@@H]1/C(=C\OC)C(=O)OC [Compound 3]
Emax [1, 6]: 40% | Emax [1, 7]: 35 ± 11% | EC50 [1]: 20 nM | Relative Potency (%) [1]: 354%

CC[C@@H]1CN2CC[C@@]3(O)C(=Nc4ccc(Br)c(OC)c43)[C@@H]2C[C@@H]1/C(=C\OC)C(=O)OC [Compound 24, 7-Hydroxy-10-bromomitragynine]
Emax [1, 6]: 71% | Emax [1, 7]: 61.7 ± 6.2% | EC50 [1]: 35.5 nM | Relative Potency (%) [1]: 199%

c1ccc2c(c1)N[C@]13CCCC[C@]21OCCO3
melting point: 156 to 157 °C

CC[C@@H]1CN2CC[C@@]3(O)C(=Nc4ccc(F)c(OC)c43)[C@@H]2C[C@@H]1/C(=C\OC)C(=O)OC [Compound 22, 7-Hydroxy-10-fluoromitragynine]
Emax [1, 6]: 95% | Emax [1, 7]: 82.5 ± 1.8% | EC50 [1]: 13.5 nM | Relative Potency (%) [1]: 524%

CN1CC[C@]23c4c5ccc(O)c4O[C@H]2[C@@H](O)C=C[C@H]3[C@H]1C5 [Morphine, reference compound]
Emax [1, 6]: 100% | Emax [1, 7]: 87.2 ± 1.8% | ED50 [2]: 63 mg/kg | ED50 [3]: 11.7 mg/kg | constipating ED50 times smaller than analgesic ED50 [4]: 5 times

CC[C@@H]1CN2CC[C@@]3(O)C(=Nc4cccc(OC)c43)[C@@H]2C[C@@H]1/C(=C\OC)C(=O)OC [Compound 1, 7-hydroxymitragynine, reference compound]
Emax [1, 6]: 104% | Emax [1, 7]: 90.8 ± 3.4% | EC50 [1]: 16.6 nM | Relative Potency (%) [1]: 426% | ED50 [2]: 4.43 mg/kg | times more potent analgesic effect than morphine [2]: 14 times | ED50 [3]: 7.5 mg/kg

CC[C@@H]1CN2CC[C@@]34OCCO[C@@]3(Nc3ccc(Cl)c(OC)c34)[C@@H]2C[C@@H]1/C(=C\OC)C(=O)OC [Compound 12a]
Relative Potency (%) [1]: 288% | Inhibitory activity (%) [1]: 55% | pD2 value (−log M) [1]: 7.61 ± 0.17 −log M | Maximum inhibition (%) [1]: 48.1 ± 9.3%

CC[C@@H]1CN2CCc3c([nH]c4cccc(OC)c34)[C@@H]2C[C@@H]1/C(=C\OC)C(=O)OC [Compound 2, Mitragynine, reference compound]
Emax [1, 6]: 83% | Emax [1, 7]: 72 ± 5% | EC50 [1]: 316 nM | Relative Potency (%) [1]: 22%

CC[C@@H]1CN2CC[C@@]34OCCO[C@@]3(Nc3ccc([N+](=O)[O-])c(OC)c34)[C@@H]2C[C@@H]1/C(=C\OC)C(=O)OC [Compound 14a]
Relative Potency (%) [1]: 537% | Inhibitory activity (%) [1]: 75% | pD2 value (−log M) [1]: 7.88 ± 0.18 −log M | Maximum inhibition (%) [1]: 65.0 ± 4.3%

CC[C@@H]1CN2CC[C@@]34OCCO[C@@]3(Nc3ccc(F)c(OC)c34)[C@@H]2C[C@@H]1/C(=C\OC)C(=O)OC [Compound 11]
Emax [1, 6]: 96% | Emax [1, 7]: 83.4 ± 3.2% | EC50 [1]: 3.98 nM | Relative Potency (%) [1]: 1778% | effect of naloxone on analgesic effect [5]: completely blocked | effect of naltrindole on analgesic effect [5]: ineffective | effect of nor-binaltorphimine on analgesic effect [5]: markedly inhibited | effect of β-funaltrexamine on analgesic effect [5]: markedly inhibited | ED50 [2]: 2.84 mg/kg | times more potent analgesic effect than morphine [2]: 22 times | ED50 [3]: 11.1 mg/kg | constipating ED50 times larger than analgesic ED50 [4]: 4 times

CCC1CN2CCC3(O)c4c(ccc(F)c4OC)NC3C2CC1C(=COC)C(=O)OC (centres unmarked) [Compound 27]
Relative Potency (%) [1]: 4571% | Inhibitory activity (%) [1]: 102% | pD2 value (−log M) [1]: 8.81 ± 0.09 −log M | Maximum inhibition (%) [1]: 89.0 ± 2.3% | effect of naloxone on analgesic effect [5]: completely blocked | effect of naltrindole on analgesic effect [5]: moderately inhibited | effect of nor-binaltorphimine on analgesic effect [5]: had no effect | effect of β-funaltrexamine on analgesic effect [5]: markedly inhibited | ED50 analgesic effect (tail-flick) [2]: 0.263 (0.165-0.420) mg/kg | ED50 analgesic effect (tail-flick) ([2]; listed as compound 27): 0.26 mg/kg | times more potent analgesic effect than morphine [2]: 240 times

CC[C@@H]1CN2CC[C@@]3(O)C(=Nc4ccc(Cl)c(OC)c43)[C@@H]2C[C@@H]1/C(=C\OC)C(=O)OC [Compound 23, 7-Hydroxy-10-chloromitragynine]
Emax [1, 6]: 86% | Emax [1, 7]: 74.8 ± 3% | EC50 [1]: 29.5 nM | Relative Potency (%) [1]: 239%
